Experimental data taken from US20040210047A1, “Methallyl sucroses and their epoxy derivatives” (priority 2003, published 2004).
“Also recorded” adds a separate entry of the source.

What was measured:
[1] = test system: Salmonella Typhimurium TA-98; experiment: Modified Maron-Ames test, strain TA-98; details: for cytotoxicity: strain TA-98, with microsomal enzyme S-9 activation, no effect on the background lawn; for mutagenicity (revertant colonies): strain TA-98, with or without metabolic activation S-9
Procedure: (§1) Serial dilutions (100 fold) were made with DMSO to obtain samples with dilution factors of 10^−3, 10^−5, and 10^−7. The assays were performed according to the modified methods of Maron and Ames (Maron D. R. and Ames, B. N. Mutation Research, 1980, Vol. 113, 173-215) using two strains of Salmonella Typhimurium TA-98 and TA-100, with and without metabolic activation of the substrate. The male rat microsomal homogenate S-9 was used to effect metabolic activation of the substrate. TA-98 and TA-100 were cultured in Oxoid Nutrient Broth No.2 at 37° C. for 16 hours using a gyratory shaker (200-250 rpm).
(§2) Compounds were assayed after the bacteria tested positive for the viability-related criteria above. Two mL top agar was placed in sterile culture tubes and kept at ˜40° C. in a water bath. Samples (100 μL) were placed in each tube (3 tubes per sample) and 100 μL of either strain TA-98 or TA-100 was added. When required, the S-9 homogenate (500 μL) was then added. The tubes were mixed and poured into minimal glucose agar plates. The plates were left at room temperature until the top agar solidified. Then, they were inverted and incubated at 37° C. for 48 hours. After incubation, revertant colonies were counted. Samples that presented greater than 2 times the number of revertant colonies were considered mutagenic. (See FIGS. 9(a) through (f)).

[2] = test system: Salmonella Typhimurium TA-100; experiment: Modified Maron-Ames test, strain TA-100; details: for dilution at which a mutagenic response was observed: dilution in DMSO
Procedure: as §1, with “Serial dilutions (100 fold) were made with DMSO to obtain samples with dilution factors of 10^−3, 10^−5, and 10^−7.” left out
as §2

Row | Compound | cytotoxicity [1] | mutagenicity (revertant colonies) [1] | cytotoxicity and mutagenicity, overall conclusion ([1]; tester strain TA-98, all concentrations) | dilution at which a mutagenic response was observed ([2]; strain TA-100, with S-9 activation) | dilution at which a mutagenic response was observed ([2]; strain TA-100, without S-9 activation) | cytotoxicity ([2]; Maron-Ames tests, about 10 mg/mL concentration in DMSO, strain not stated) | cytotoxicity ([2]; dilution factors of 10^−1) | mutagenic response ([2]; strain TA-100, dilution factor 10^−1 in DMSO, with or without S-9 activation) | revertant colonies ([2]; strain TA-100, dilution factor 10^−2)
1 | CC(C)(c1ccc(OCC2CO2)cc1)c1ccc(OCC2CO2)cc1 (stereo not shown) [DGEBA, diglycidyl ether of bisphenol-A] | slightly cytotoxic | no apparent mutagenicity | neither cytotoxic nor mutagenic | greater than 10^−3 | greater than 10^−5 |  |  |  | 
2 | epoxycrotyl sucrose [ECS] | slightly cytotoxic |  |  |  |  |  |  |  | 
3 | epoxyallyl sucrose [EAS] | slightly cytotoxic |  |  |  |  |  |  |  | 
4 | epoxymethallyl sucrose [EMS] | slightly cytotoxic | no apparent mutagenicity; also recorded: no mutagenic response |  |  |  | borderline cytotoxicity | borderline cytotoxic | mutagenic response was observed | had not doubled
